Series [1] deals with clinical isolate of C. krusei (225/2). Briefly: Antifungal microdilution assay, C. krusei. In kind it is cell-based, Candida krusei. Particulars: 24 h; for inhibition of the growth: C. krusei. The protocol: (§1) The clinical isolates of Candida albicans (v47a3), C. krusei (225/2) and C. glabrata (252/2) were collected from patients with human immunodeficiency virus (HIV) infection and provided by G.N. Gabrichevsky Research Institute for Epidemiology and Microbiology (Moscow, Russia). Strains stocks were kept at −70 ℃ in 10% nonfat milk with 10% glycerol.
(§2) Antifungal susceptibility tests were performed by the microdilution method using 96-well microplates. Yeast cells in stock were inoculated onto modified YPD (yeast extract 5 g/L, peptone 10 g/L, glucose 10 g/L) agar plates, and incubated for 24 h at 37 ℃. After replating, cells were cultured in modified YPD broth at 37 ℃ to optical density 1.0 at 540 nm. Further, yeast cells in modified YPD broth at concentration of 5 × 10^4 cells/mL were mixed with equal volumes of serial two-fold dilutions of the peptide in water which started at the highest peptide concentration of 200 µM. Final peptide concentrations in the wells were 100, 50, 25, 12.5, 6.25, 3.125, and 1.56 μM. Controls without defensin were also tested. Plates were incubated at 30 ℃ during 24 h. Yeast growth was estimated using inverted microscope as well as by measuring the optical density at 540 nm. Percentage of growth inhibition was defined as: growth inhibition (%) = ((Acontrol − Asample)/Acontrol) × 100%. All of the experiments were performed twice in triplicate. The t-test was performed to study the statistical difference (p-value) between the means of controls and samples with different peptide concentrations. The experiment with lentil Lens culinaris lipid transfer protein Lc-LTP2 was carried out for comparison.
For orientation: In broth dilution the organism is exposed to a series of concentrations in liquid medium.

Series [2] relates to clinical isolate of C. glabrata (252/2). Briefly: Antifungal microdilution assay, C. glabrata. The series is classed as cell-based, Candida glabrata. Particulars: 24 h; for inhibition of the growth: C. glabrata. The protocol:
as §1, §2

Series [3] deals with proteolytic enzymes of Candida albicans. Briefly: Sensitivity to proteolytic enzymes of Candida albicans (cell lysate, SDS-PAGE). Particulars: C. albicans lysate 10^9 cells/mL, up to 72 h, SDS-PAGE. In kind it is in vitro ADME. The protocol:
For study of Lc-def sensitivity to the clinical isolate of C. albicans, lysates of yeast cells in different concentration and pH were used basically as previously described for rhesus macaque θ-defensin 1 [22]. Cells were inoculated onto modified YPD medium and grown at 37 ℃ for 48 h before reaching the stationary phase of growth. Cells were harvested by centrifugation, washed two times in sterile phosphate buffered saline (PBS), pH 7.2, or sterile 40 mM sodium acetate, pH 4.0, and resuspended in the corresponding buffer to final concentrations of 1 × 10^9 cells/mL or 1 × 10^3 cells/mL. Two freeze-thaw cycles in liquid nitrogen were used for cell disruption, and supernatants were collected following centrifugation. Supernatants (12.5 μL) were mixed with water solutions (37.5 μL) of Lc-def, α-casein, Psd1, or LL-37 in concentration of 0.67 mg/mL and incubated at 37 ℃ for 72 or 24 h in the case of high or low cell concentration, respectively. To study the possible influence of Lc-def and Psd1 on the degradation process, supernatants (12.5 μL) were mixed with both α-casein or LL-37 in concentration of 1 mg/mL (25 μL) and Lc-def or Psd1 in concentration of 2 mg/mL (12.5 μL). As negative controls, α-casein and peptides were mixed with buffers as well as supernatants were mixed with water without the proteins. The samples were mixed with sample buffer without β-mercaptoethanol (BME), heated at 100 ℃ for 2 min, and analyzed by sodium dodecyl sulfate polyacrylamide gel electrophoresis (SDS-PAGE). Some independent experiments were performed in each case.

pIC50: −log10 of the molar value. Several values for one entry are separate records, joined by “and”; a condition that tells them apart may be missing. Equal values may be shown once. No end group written: not given here.

As for “Lc-def: defensin from lentil Lens culinaris seeds (UniProt:B3F051), recombinant, overexpressed in Escherichia coli (KTCENLSDSFKGPCIPDGNCNKHCKEKEHLLSGRCRDDFRCWCTRNC; disulfide (positions not given here); ends not checked; also: disulfide bonds present, pairing not given here; UniProt B3F051 28-74, looked up)”, the pIC50 in series [1] (C. krusei clinical isolate, microdilution, modified YPD, 30 °C, OD540, twice in triplicate, read-out: concentration causing 50% growth inhibition) is 4.30 to 4.60 and 4.60; in series [2] (C. glabrata clinical isolate, microdilution, modified YPD, 30 °C, OD540, twice in triplicate, read-out: concentration causing 50% growth inhibition), 4.30 to 4.60. For the same substance, the “inhibition of the growth” value in series [1] (50 μM peptide) is on record as approximately 90%; in series [1] (100 μM peptide) it was less than 100%; in series [2] (50 μM peptide), approximately 90%; in series [2] (100 μM peptide), less than 100%. Moreover, the “stability to proteolysis by yeast” value was “stable” in series [3] (40 mM sodium acetate pH 4.0, 37 °C) and “stable” in series [3] (PBS pH 7.2, 37 °C, densitometry, immunoblotting).
